According to USRE47689E1, “Compounds for treating spinal muscular atrophy” (PTC Therapeutics, Inc., priority 2011, dated 2019):
Where two headings read alike, the source gives them in different places.

How the values were obtained:
[1] = tested on: Smn protein; assay: Smn protein assay in cultured cells (SMN HTRF); format: cell-based, human; conditions: 48 hours; for EC1.5x (concentration giving 1.5-fold Smn protein increase): SMA Type 1 patient fibroblast cells (GM03813), 7-point concentration curve, SMN HTRF, concentration producing 1.5 times Smn protein vs DMSO vehicle control, read-out: EC1.5x for Smn protein expression; for maximum fold (Fold) increase of Smn protein: SMA patient fibroblast cells, 7-point concentration data, fold increase relative to vehicle control (SMN HTRF)
Outline: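 Lysates in RIPA with protease inhibitors are incubated overnight at room temperature with HTRF anti-SMN antibodies. EC1.5x is derived from fold increase in ΔF over vehicle.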

[2] = tested on: SMN2 minigene (full length SMN2 minigene mRNA containing SMN2 exon 7); assay: SMN2 minigene mRNA splicing RT-qPCR assay in cultured cells; format: cell-based, human; conditions: Homo sapiens, HEK293-H, read-out: EC1.5x for production of full length SMN2 mRNA
Outline: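 HEK293H cells stably carrying the SMN2-A minigene treated 24 h at 37° C with compound (DMSO, 200× stock), then lysed. Multiplex RT-qPCR (SMN primers 0.4 μM final; 40 cycles) measures full-length exon 7-containing minigene mRNA, normalized to GAPDH and to vehicle; EC1.5x derived and binned by stars.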

[3] = HEK293H cells stably transfected with SMN2-A minigene, 24 hours, 7-point concentration curve, 1.5-fold relative to vehicle-treated cells

Row | SMILES | melting point | EC1.5x (concentration giving 1.5-fold Smn protein increase) [1] | maximum fold (Fold) increase of Smn protein [1] | EC (1.5-fold) [2, 3] | EC (1.5-fold) ([2]; 24 h)
1 | Cc1cn2cc(-c3cc4ccc(CCN5CCC[C@@H]5CO)cc4oc3=O)nc2c(C)n1 [Compound 874, 3-(6,8-dimethylimidazo[1,2-a]pyrazin-2-yl)-7-{2-[(2R)-2-(hydroxymethyl)pyrrolidin-1-yl]ethyl}-2H-chromen-2-one] | 166 to 171 °C | < 300 nM | ***** (fold increase >1.65) | < 0.1 µM | –
2 | Cc1cc(F)c2nc(-c3cc4ccc(N5CC6CCC(C5)N6C)cc4oc3=O)cn2c1 [Compound 613, 3-(8-fluoro-6-methylimidazo[1,2-a]pyridin-2-yl)-7-(8-methyl-3,8-diazabicyclo[3.2.1]oct-3-yl)-2H-chromen-2-one] | 267 to 274 °C | – | ** (fold increase between >1.2 and ≤1.35) | – | 0.3 to 1 µM
3 | O=c1oc2cc(N3CCCNCC3)ccc2cc1-c1cn2ccsc2n1 [Compound 206, 7-(1,4-diazepan-1-yl)-3-(imidazo[2,1-b][1,3]thiazol-6-yl)-2H-chromen-2-one] | 225 to 230 °C | – | ** (fold increase between >1.2 and ≤1.35) | 0.3 to 1 µM | –
4 | Cc1nc(Cl)cn2cc(-c3cc4ccc(N5CC[C@H](N(C)C)C5)cc4oc3=O)nc12 [Compound 765, 3-(6-chloro-8-methylimidazo[1,2-a]pyrazin-2-yl)-7-[(3S)-3-(dimethylamino)pyrrolidin-1-yl]-2H-chromen-2-one] | 210 to 215 °C | – | * (maximum fold increase of ≤1.2) | 0.3 to 1 µM | –
5 | Cc1cn2cc(-c3cc4ccc(N5C[C@H](O)[C@@H](N(C)C)C5)cc4oc3=O)nc2c(C)n1 [Compound 738, 7-[(3S,4S)-3-(dimethylamino)-4-hydroxypyrrolidin-1-yl]-3-(6,8-dimethylimidazo[1,2-a]pyrazin-2-yl)-2H-chromen-2-one] | 270 to 272 °C | < 300 nM | ***** (fold increase >1.65) | < 0.1 µM | –
6 | Cc1cccn2cc(-c3cc4ccc(N5CCN[C@@H](C)C5)cc4oc3=O)nc12 [Compound 248, 3-(8-methylimidazo[1,2-a]pyridin-2-yl)-7-[(3S)-3-methylpiperazin-1-yl]-2H-chromen-2-one] | 162 to 166 °C | 1000 to 3000 nM | ** (fold increase between >1.2 and ≤1.35) | 0.1 to 0.3 µM | –
7 | CC(=O)O.CC(=O)O.CC[C@H]1CN(c2ccc3cc(-c4cn5cc(C)nc(C)c5n4)c(=O)oc3c2)CCN1CC [Compound 779, 7-[(3S)-3,4-diethylpiperazin-1-yl]-3-(6,8dimethylimidazo[1,2-a]pyrazin-2-yl)-2H-chromen-2-one acetate (1:2)] | 170 to 174 °C | < 300 nM | ***** (fold increase >1.65) | < 0.1 µM | –
8 | Cc1cn2cc(-c3cc4ccc(N[C@@H]5CCN(C)C5)cc4oc3=O)nc2c(C)n1 [Compound 730, 3-(6,8-dimethylimidazo[1,2-a]pyrazin-2-yl)-7-{[(3R)-1-methylpyrrolidin-3-yl]amino}-2H-chromen-2-one] | 226 to 233 °C | – | *** (fold increase between >1.35 and ≤1.5) | < 0.1 µM | –
9 | Cc1cn2cc(-c3cc4ccc(CCCN5CCNCC5)cc4oc3=O)nc2c(C)n1 [Compound 859, 3-(6,8-dimethylimidazo[1,2-a]pyrazin-2-yl)-7-[3-(piperazin-1-yl)propyl]-2H-chromen-2-one] | 145 to 153 °C | 300 to 1000 nM | **** (fold increase between >1.5 and ≤1.65) | 0.1 to 0.3 µM | –
10 | Cc1cc(F)c2nc(-c3cc4ccc(N5CCN6CCCCC6C5)cc4oc3=O)cn2c1 (stereo not shown) [Compound 612, 3-(8-fluoro-6-methylimidazo[1,2-a]pyridin-2-yl)-7-(octahydro-2H-pyrido[1,2-a]pyrazin-2-yl)-2H-chromen-2-one] | 268 to 275 °C | – | ** (fold increase between >1.2 and ≤1.35) | 0.3 to 1 µM | –
11 | Cc1csc(-c2cc3ccc(N4CCCN(C)CC4)cc3oc2=O)n1 [Compound 285, 7-(4-methyl-1,4-diazepan-1-yl)-3-(4-methyl-1,3-thiazol-2-yl)-2H-chromen-2-one] | 190 to 200 °C | – | * (maximum fold increase of ≤1.2) | 1 to 3 µM | –
12 | CN(C)[C@H]1CCN(c2ccc3cc(-c4cn5cccc(Cl)c5n4)c(=O)oc3c2)C1 [Compound 122, 3-(8-chloroimidazo[1,2-a]pyridin-2-yl)-7-[(3S)-3-(dimethylamino)pyrrolidin-1-yl]-2H-chromen-2-one] | 238 to 241 °C | – | * (maximum fold increase of ≤1.2) | 1 to 3 µM | –
13 | C[C@@H]1CN(c2ccc3cc(-c4cn5ccc(C(F)(F)F)cc5n4)c(=O)oc3c2)C[C@H](C)N1 [Compound 116, 7-[(3R,5S)-3,5-dimethylpiperazin-1-yl]-3-[7-(trifluoromethyl)imidazo[1,2-a]pyridin-2-yl]-2H-chromen-2-one] | 257 to 264 °C | – | ** (fold increase between >1.2 and ≤1.35) | 0.3 to 1 µM | –

The next lines start with results.

Row | melting point | SMILES | EC1.5x (concentration giving 1.5-fold Smn protein increase) [1] | maximum fold (Fold) increase of Smn protein [1] | EC (1.5-fold) [2, 3] | EC (1.5-fold) ([2]; 24 h)
14 | 175 to 178 °C | Cc1cn2cc(-c3cc4ccc(N5CCCN(C)CC5)cc4oc3=O)ccc2n1 [Compound 653, 7-(4-methyl-1,4-diazepan-1-yl)-3-(2-methylimidazo[1,2-a]pyridin-6-yl)-2H-chromen-2-one] | – | *** (fold increase between >1.35 and ≤1.5) | 0.1 to 0.3 µM | –
15 | 211 to 213 °C | COc1ccc(-c2cc3ccc(N4CCNCC4)cc3oc2=O)cc1 [Compound 447, 3-(4-methoxyphenyl)-7-(piperazin-1-yl)-2H-chromen-2-one] | – | * (maximum fold increase of ≤1.2) | 1 to 3 µM | –
16 | 232 to 236 °C | Cc1ccn2cc(-c3cc4ccc(N5CCCN(C)CC5)cc4oc3=O)nc2n1 [Compound 227, 7-(4-methyl-1,4-diazepan-1-yl)-3-(7-methylimidazo[1,2-a]pyrimidin-2-yl)-2H-chromen-2-one] | 3000 to 10000 nM | *** (fold increase between >1.35 and ≤1.5) | 0.1 to 0.3 µM | –
17 | 214 to 221 °C | O=c1oc2cc(N3CCNCC3)ccc2cc1-c1noc(-c2ccccc2)n1 [Cpd 50, 3-(5-phenyl-1,2,4-oxadiazol-3-yl)-7-(piperazin-1-yl)-2H-chromen-2-one] | – | * (maximum fold increase of ≤1.2) | 1 to 3 µM | –
18 | 171 to 176 °C | CN(C)Cc1ccc2cc(-c3nc4ccccc4s3)c(=O)oc2c1 [Compound 13, 3-(1,3-benzothiazol-2-yl)-7-[(dimethylamino)methyl]-2H-chromen-2-one] | – | ** (fold increase between >1.2 and ≤1.35) | 1 to 3 µM | –
19 | 173 to 176 °C | Cc1cn2cc(-c3cc4ccc(CCCN(C)CCO)cc4oc3=O)nc2c(C)n1 [Compound 880, 3-(6,8-dimethylimidazo[1,2-a]pyrazin-2-yl)-7-{3-[(2-hydroxyethyl)(methyl)amino]propyl}-2H-chromen-2-one] | < 300 nM | **** (fold increase between >1.5 and ≤1.65) | < 0.1 µM | –
20 | 179 to 182 °C | CN(C)Cc1ccc2cc(-c3nc4c(Cl)cccc4s3)c(=O)oc2c1 [Cpd 14, 3-(4-chloro-1,3-benzothiazol-2-yl)-7-[(dimethylamino)methyl]-2H-chromen-2-one] | – | *** (fold increase between >1.35 and ≤1.5) | 0.3 to 1 µM | –
21 | > 310 °C | Cc1cn2cc(-c3cc4ccc(N5CCNCC5)cc4oc3=O)nc2s1 [Compound 96, 3-(2-methylimidazo[2,1-b][1,3]thiazol-6-yl)-7-(piperazin-1-yl)-2H-chromen-2-one] | 3000 to 10000 nM | *** (fold increase between >1.35 and ≤1.5) | 0.1 to 0.3 µM | –
22 | 261 to 263 °C | Cc1cn2cc(-c3cc4ccc(N5CCN6CCC[C@H]6C5)cc4oc3=O)nc2c(C)n1 [Compound 634, 3-(6,8-dimethylimidazo[1,2-a]pyrazin-2-yl)-7-[(8aS)-hexahydropyrrolo[1,2-a]pyrazin-2(1H)-yl]-2H-chromen-2-one] | < 300 nM | ***** (fold increase >1.65) | < 0.1 µM | –
23 | 259 to 269 °C | Cc1cn2cc(-c3cc4ccc(N5C[C@H]6CCCN[C@H]6C5)cc4oc3=O)nc2c(C)n1 [Compound 655, 3-(6,8-dimethylimidazo[1,2-a]pyrazin-2-yl)-7-[(4aR,7aR)-octahydro-6H-pyrrolo[3,4-b]pyridin-6-yl]-2H-chromen-2-one] | < 300 nM | **** (fold increase between >1.5 and ≤1.65) | < 0.1 µM | –
